“Also recorded” adds a separate entry of the source.
Tests used:
Type in all cases: in vivo, female Sprague-Dawley rats
[1] = system: chemically induced bladder hyperactivity; test: Cystometrogram (CMG): liposomes of various lipids infused in the presence of KCl after protamine sulfate (Examples 1-4)
From the text: Bladder reflex activity in thirty-four (34) female Sprague-Dawley rats (200-250 g) was studied by cystometry performed under anesthesia with urethane (1.2 g/kg) administered by subcutaneous injection. Body temperature was maintained in the physiologic range using a heating lamp. A transurethral bladder catheter (PE-50) connected by a three-way stopcock to a pressure transducer and to a syringe pump was used to record intravesical pressure and to infuse solutions into the bladder. A control cystometrogram (CMG) was performed by slowly filling the bladder with saline at a rate of 0.04 ml/min to elicit repetitive voiding. The bladder contraction frequency of the reflex bladder contractions were recorded. After performing control CMGs with saline infusion for 3 hours, protamine sulfate (PS) (Sigma Chemical; 10 mg/ml) was infused at a rate of 0.04 ml/min for 1 hour to increase epithelial permeability followed by infusion of the irritant KCl (500 mM) for 1 hour. Subsequently, liposomes made from lipids of various compositions then were infused in the presence of a high concentration of KCl for 2 hours.
The effect of charge on the lipid headgroup in reducing bladder activity in three animal groups (n=5) was determined. Neutrally charged liposomes prepared with L-α-PC (a zwitterionic lipid egg PC) were compared against liposomes having either a positively or negatively charged polar headgroup, namely, 1,2-dioleoyl-3-trimethylammonium-propane (DOTAP) and 1-α-phosphatidylserine (POPS), respectively.
Liposomes were prepared as described by Kirby and Gregoriadis (Kirby, C. J. and Gregoriadia, G., “A simple procedure for preparing liposomes capable of high encapsulation efficiency under mild conditions,” Liposome Technology, G. Gregnoriadis, Ed., C.R.C. Press, Inc., Boca Raton, Fla., 1984, Vol. 1, p. 20, 1984). Briefly, liposomes were constructed as a 2:1 molar ratio of L-α-phosphatidylcholine and cholesterol (Sigma Chemical Co., St. Louis, Mo.) to a final lipid concentration of 1-2 mg/ml in saline. Lipids in chloroform were dried down together in the proper ratio under nitrogen. The residues were reconstituted as liposomes in saline or 500 mM KCl by intense sonication. This lipid composition produced liposomes with no net charge.
Statistical analyses were performed using Student's t test for paired or unpaired data, where applicable. A P-value less than 0.05 was considered significant. All data were expressed as means±S.E. (standard error).
Neutrally charged liposomes prepared with sphingomyelin were compared against liposomes prepared from dihydrosphingomyelin and two pure synthetic lipids: 1,2-distearoyl-sn-glycero-3-phosphocholine (DSPC) and 1,-oleoyl-2-stearoyl-sn-glycero-3-phosphocholine (OSPC).
The methodology of this investigation is the same as described above in Example 1 with the exception that the preparation of liposomes was modified from Example 1. Briefly, liposomes were constructed as a 2:1 molar ratio of sphingomyelin and cholesterol (Sigma Chemical Co., St. Louis, Mo.) to a final lipid concentration of 1-2 mg/ml in saline. Lipids in chloroform were dried down together in the proper ratio under nitrogen. The residues were reconstituted as liposomes in saline or 500 mM KCl by intense sonication. This lipid composition produced sphingomyelin liposomes with no net charge.
Sphingomyelin devoid of its phosphorylcholine head group generates the molecule ceramide, a well known lipid second messenger which mediates a wide range of cellular responses to external stimuli, and also is used for the biosynthesis of sphingomyelin and glycosphingolipids. Because ceramide cannot form stable liposomes by itself, its effect on bladder hyperactivity was tested by including it at 1 mol % in an inert lipid, namely, 1,2-distearoyl-sn-glycero-3-phosphocholine (DSPC).
The methodology of this investigation is the same as described above in Example 1 with the exception that the preparation of liposomes was modified from Example 1. […]

[2] = system: hyperactive bladder (acetic acid); test: Continuous CMG, hyperactive bladder induced by acetic acid (Examples 5-6)
Procedure: (§1) This was followed by instillation of liposomes (LP) in saline (in the case of the former) or LP/KCl.
(§2) Intravesical bladder pressure was recorded via a transurethral catheter in adult female Sprague-Dawley rats anesthetized with urethane (1.2 g/kg) administered by subcutaneous injection (sc). Some animals were pretreated with capsaicin (125 mg/kg, sc) four days prior to the experiments. […] Parameters measured included intercontraction interval (ICI), amplitude of bladder contractions, compliance and micturition pressure threshold (PT).
(§3) Animal Preparation. Thirty-four female Sprague-Dawley rats (250-300 g) were used in this study. Animals were anesthetized with urethane (1.2 g/kg, sc). Body temperature was maintained in the physiological range using a heating lamp.
(§4) Cystometrogram (CMG). A transurethral bladder catheter (PE-50) was connected via a three-way stopcock to a pressure transducer and to a syringe pump. This was used to record intravesical pressure and to infuse solutions into the bladder. A control CMG was performed by slowly filling the bladder with saline (0.04 ml/min) to elicit repetitive voiding. The parameters recorded were amplitude, PT, compliance, and ICI of reflex bladder contractions. Measurements in each animal represented the average of 3 to 5 bladder contractions.
(§5) Induction of a Hyperactive Bladder. […] L. Cheng et al., 1993, Am. J. Physiol. 265:R132-138). The experimental design is illustrated in FIG. 7. The KCl concentration used was within the range of concentrations present in normal rat urine (M. Ohnishi et al., 2001, Toxicol. Appl. Pharmacol. 174:122-129).
(§6) Preparation of Liposomes (LP). LP were prepared as described by Kirby and Gregoriadis (C. J. Kirby and G. Gregoriadia, 1984, “A simple procedure for preparing liposomes capable of high encapsulation efficiency under mild conditions,” Liposome Technology; G. Gregnoriadis, Ed., C.R.C. Press, Inc., Boca Raton, Fla., Vol. 1, p. 20). Briefly, LP were constructed as a 2:1 molar ratio of L-α-phosphatidylcholine and cholesterol (Sigma Chemical Co., St. Louis, Mo.) to a final lipid concentration of 2 mg/ml in saline. Lipids in chloroform were dried down together in the proper ratio under nitrogen. The residues were reconstituted as LP in saline or 500 mM KCl by intense sonication.
(§7) Statistical Analyis. Statistical analyses were performed using Student's t test for paired or unpaired data, where applicable. A p-value less than 0.05 was considered significant. All data are expressed in Example 2 (below) as means±S.E.

[3] = system: acute hyperactive bladder; test: Continuous CMG, acute hyperactive bladder model with intravesical PS and KCl (Examples 7-8)
Procedure: An animal model for acute hyperactive bladder in rats was developed using intravesical infusion of PS, an agent used to break down urothelial barrier function and physiological concentrations of KCl.
Continuous CMGs were performed in urethane-anesthetized female rats. The bladder was filled (0.04 ml/min) with normal saline followed by intravesical infusion for a 60 minute period with a test solution comprising either KCl (100 or 500 mM) or PS (10 or 30 mg/ml). Following this, 10 mg/ml PS treated animals were infused intravesically with 100, 300 or 500 mM KCl. Some animals were pretreated with capsaicin ([…], sc) four days before the experiments.
Animal Preparation. The study was performed on 40 female Sprague-Dawley rats weighing 250-300 gm. Animals were anesthetized with 1.2 gm/kg urethane injected subcutaneously. Body temperature was maintained in the physiological range using a heating lamp.
Cystometrogram (CMG). PE-50 tubing (Clay-Adams, Parsippany, N.J.) was inserted into the bladder through the urethra and connected via a three-way stopcock to a pressure transducer and to a syringe pump. This was used for recording intravesical pressure and for infusing solutions into the bladder. A control CMG was performed by slowly filling the bladder with saline (0.04 ml/min) to elicit repetitive voiding. The amplitude, PT, compliance and intercontraction interval (ICI) of reflex bladder contractions were recorded. Pressure threshold (PT) represents the pressure that induces the initial bladder contraction. PT often has been used as a parameter corresponding to afferent nerve activity for the induction of reflex bladder contractions. Measurements in each animal represented the average of 3 to 5 bladder contractions.
After performing control CMGs with saline infusion, three intravesical infusion experiments were performed in parallel: (1) infusion of KCl (100 or 500 mM in saline) for one hour (N=4 in each group); (2) infusion of PS (Sigma Chemical Co.; 30 mg/ml in saline) for one hour (N=6); and (3) infusion of PS (10 mg/ml) for one hour, followed by 100, 300 or 500 mM KCl for one hour (N=6, in each subgroup). In four animals, capsaicin dissolved in a vehicle containing 10% ethanol, 10% TWEEN®80 and 80% physiological saline, at a concentration of 20 mg/ml was given subcutaneously in divided doses on 2 consecutive days. The doses included 25 and 50 mg/kg at a 12-hour interval on the first day and 50 mg/kg on the second day, as previously described (C. L. Cheng et al., 1993, Am. J. Physiol. 265:R132-138). All injections were performed under halothane anesthesia. Four days after the last dosage of capsaicin, the animals were anesthetized and treated with intravesical administration of PS (10 mg/ml) for 1 hour followed by KCl (500 mM) infusion.
Suppression of Micturition Reflex. To evaluate the direct effects of potassium on detrusor muscle, micturition reflex was blocked in 4 animals by either intravenous hexamethonium injection (25 mg/kg) (N=2) or transection of bilateral pelvic nerves (N=2).
Statistical Analysis. Statistical analyses were performed using Student's t test for paired or unpaired data, as applicable, with p<0.05 considered significant. Quantitative data are expressed in Example 8 (below) as means plus or minus standard error.

[4] = system: hyperactive bladder (PS/KCl); test: Continuous CMG, hyperactive bladder induced by PS/KCl (Examples 5-6)
Procedure: as §1, §2, §3, §4, §5, §6, §7

[5] = AA 1 hr in capsaicin pretreated rats, N=4
[6] = AA 2 hr in capsaicin pretreated rats, N=4
[7] = AA at 1 hour, capsaicin pretreated animals
[8] = AA at 2 hours, capsaicin pretreated animals
[9] = Table 2A series: saline, AA 0.1% 1 h, LP 2 h, N=6
[10] = Table 2B series: saline, AA 0.1% 1 h, saline, N=6
[11] = Table 2C series: saline, LP 1 h, AA 1 h, N=6
[12] = Table 1A: PS 10 mg/ml infusion 1 hour after saline, N=6

1-alkyl-2-acetoyl-sn-glycero-3-phosphocholine [PAF]
bladder reflex activity ([1]; instilled alone or included with DSPC liposomes at 1-5 mol %): aggravated the bladder reflex activity

CC(=O)O [AA, acetic acid]
compliance reduction ([2]; AA 0.1%, two series of experiments): 71-76%
ICI ([2]; AA 1 hr in capsaicin pretreated rats (125 mg/kg sc, four days before), N=4): 10.2 ± 3.0 min
Amplitude [2, 5]: 20.9 ± 2.5 cm H2O
Compliance [2, 5]: 0.152±0.028 ml/cm H2O
PT [2, 5]: 6.7 ± 0.2 cm H2O
Amplitude [2, 6]: 23.6 ± 5.7 cm H2O
Compliance [2, 6]: 0.082±0.024 ml/cm H2O
ICI [2, 6]: 4.6 ± 1.2 min
PT [2, 6]: 6.7 ± 0.7 cm H2O
ICI reduction [2, 7]: 51%
compliance reduction [2, 7]: 33%
ICI decrease [2, 8]: 78%
compliance decrease [2, 8]: 64%
Amplitude change ([2]; AA infusion): slight increase
PT change ([2]; AA infusion): not significantly changed
bladder hyperactivity in CMG tracings / summary ([2]; FIGS. 10A-10F, summary of Examples 5-6): elicited bladder hyperactivity
Amplitude [2, 9]: 36.8 ± 6.5 cm H2O
Compliance [2, 9]: 0.071±0.016 ml/cm H2O
ICI [2, 9]: 2.4 ± 0.5 min
PT [2, 9]: 8.3 ± 0.9 cm H2O
Amplitude [2, 10]: 37.0 ± 7.0 cm H2O
Compliance [2, 10]: 0.079±0.026 ml/cm H2O
ICI [2, 10]: 2.9 ± 0.9 min
PT [2, 10]: 9.1 ± 1.4 cm H2O
Amplitude [2, 11]: 38.0 ± 1.3 cm H2O
Compliance [2, 11]: 0.071 ± 0.022 ml/cm H2O
ICI [2, 11]: 3.1 ± 0.8 min
PT [2, 11]: 6.7 ± 0.7 cm H2O
time until irritative effect evident ([2]; following AA infusion): 20 to 30 min

COc1cc(CNC(=O)CCCCC=CC(C)C)ccc1O [capsaicin, 8-methyl-N-vanillyl-6-nonenamid]
ICI decrease ([3]; capsaicin pretreated animals, PS 10 mg/ml then KCl 500 mM, 2 hours of infusion): 35.5%
delay of hyperactive bladder ([3]; capsaicin pretreated animals, sequential PS 10 mg/ml and KCl 500 mM): about 1 hour
delay of onset of irritative effects ([3]; capsaicin pretreatment, PS 10 mg/ml then KCl 500 mM): ~60 min
PS/KCl-induced bladder hyperactivity after capsaicin pretreatment ([3]; capsaicin sc in divided doses, four days before): suppressed PS/KCl-induced bladder hyperactivity
delay of bladder hyperactivity evoked by AA ([2]; capsaicin pretreated animals): 0.5 to 1 h
delay of onset of the irritative effects of AA ([2]; pretreatment with capsaicin 125 mg/kg sc four days before): 30 to 60 min

CCCCCCCCCCCCC/C=C/[C@@H](O)[C@@H](N)COP(=O)(O)O [sphingosine 1-phosphate]
effect on efficacy of DSPC liposomes in reducing bladder contraction frequency ([1]; included at 1 mol % in DSPC liposomes): did not show a similar beneficial effect
effect on efficacy of DSPC liposomes in reducing bladder contraction frequency ([1]; included in DSPC at 1-5 mol % (data not shown)): equally effective as ceramide and sphingosine

protamine sulfate [PS]
Amplitude ([3]; 10 mg/ml PS, one hour, N=18): 25.3 ± 2.0 cm H2O
Compliance ([3]; 10 mg/ml PS, one hour, N=18): 0.176 ± 0.013 ml/cm H2O
ICI ([3]; 10 mg/ml PS, one hour, N=18): 17.8 ± 0.7 min
PT ([3]; 10 mg/ml PS, one hour, N=18): 3.4 ± 0.9 cm H2O
Amplitude ([3]; 30 mg/ml PS, one hour, N=6): 28.3 ± 3.1 cm H2O
Compliance ([3]; 30 mg/ml PS, one hour, N=6): 0.083 ± 0.022 ml/cm H2O
ICI ([3]; 30 mg/ml PS, one hour, N=6): 2.7 ± 0.7 min
PT ([3]; 30 mg/ml PS, one hour, N=6): 7.8 ± 1.1 cm H2O
ICI decrease ([3]; PS 30 mg/ml): 80.6%
PT increase ([3]; PS 30 mg/ml): 36.8%
compliance decrease ([3]; PS 30 mg/ml): 63.6%
delay to irritative effect ([3]; PS 30 mg/ml): 40 to 45 min
bladder hyperactivity ([3]; high concentrations of PS): induced bladder hyperactivity (decreased ICI)
irritative effects / CMG parameters ([3]; low concentration of PS (10 mg/ml), one hour): not observed; also recorded: no significant change; also recorded: produced no effect
Amplitude [4, 12]: 27.5 ± 0.7 cm H2O
Compliance [4, 12]: 0.210 ± 0.031 ml/cm H2O
ICI [4, 12]: 14.9 ± 1.7 min
PT [4, 12]: 5.9 ± 0.9 cm H2O
change of ICI / CMGs ([4]; infused alone: PS 10 mg/ml or KCl 500 mM): not changed; also recorded: did not significantly change the CMGs

— patent publication US8110217B2, “Sphingomyelin liposomes for the treatment of hyperactive bladder disorders” (priority 2001, dated 2012)
